Results reported in PMC8688338 (Molecular microbiology, 2021).
Where “and” joins values, the source holds several entries; their conditions need not be identical. Identical values can stand only once. Like-named read-outs stand apart in the source and are kept apart here.

Experiments:
T. vaginalis = details: cited from earlier work
TvagENT3 = TvagENT3 (Trichomonas vaginalis, UniProt A2E5Q3); test: [3H]-cytidine uptake by T. brucei TbAT1-KO cells expressing TvagENT3; details: for inhibition of cytidine uptake: 0.5 µM [3H]-cytidine
[1] = molecular target: low affinity pyrimidine nucleobase transporter of T. vaginalis; test: [3H]-uracil transport in T. vaginalis trophozoites; assay type: cell-based, Trichomonas vaginalis; details: for Ki: read-out: Ki,app
[2] = molecular target: T. vaginalis nucleoside transporters, Adenosine (HA); test: High affinity [3H]-adenosine transport in T. vaginalis trophozoites; assay type: cell-based, Trichomonas vaginalis
[3] = tested on: T. vaginalis adenine transporter; test: [3H]-adenine transport in T. vaginalis trophozoites; assay type: cell-based, Trichomonas vaginalis; details: for Km: read-out: Km,app
[4] = tested on: T. vaginalis nucleoside transporters, Thymidine (HA); test: Higher affinity [3H]-thymidine transport; assay type: cell-based, Trichomonas vaginalis; details: for EC50: single experiment
[5] = tested on: T. vaginalis nucleoside transporters, Adenosine (LA); test: Low affinity adenosine transport; assay type: cell-based, Trichomonas vaginalis; details: for inhibition of transport: 20 µM [3H]-adenosine, highest tested concentration: guanosine 250 µM, adenine 1 mM, hypoxanthine 1 mM, uracil 10 mM; for Ki: read-out: Ki,app, average and SEM; for Ki / EC50: inhibition of 20 µM [3H]-adenosine transport; for EC50: single experiment, Fig. 4
TvagENT6 [6] = molecular target: T1, TvagENT6 (Trichomonas vaginalis, UniProt A2EMT5)
[7] = tested on: T. vaginalis nucleoside transporters, Cytidine (LA); test: Low affinity cytidine transport in T. vaginalis trophozoites; assay type: cell-based, Trichomonas vaginalis; details: Cytidine (LA); average and SEM
[8] = molecular target: T. vaginalis nucleoside transporters, Guanosine (HA); test: [3H]-guanosine transport in T. vaginalis trophozoites; assay type: cell-based, Trichomonas vaginalis; details: for Ki: read-out: Ki,app, inhibition of [3H]-guanosine transport, monophasic sigmoid curve
[9] = tested on: T. vaginalis nucleoside transporters, Cytidine (HA); test: High affinity [3H]-cytidine transport in T. vaginalis trophozoites; assay type: cell-based, Trichomonas vaginalis; details: for Km: read-out: Km,app, […] [3H]-cytidine; for Ki: read-out: Ki,app, inhibition of […] [3H]-cytidine transport, 30 s
[10] = molecular target: T. vaginalis nucleoside transporters, Uridine (HA); test: [3H]-uridine transport in T. vaginalis trophozoites; assay type: cell-based, Trichomonas vaginalis; details: for Km: read-out: Km,app, Uridine (HA)
[11] = tested on: T. vaginalis trophozoites; test: Preliminary uptake of cytosine and thymine by T. vaginalis trophozoites; assay type: cell-based, Trichomonas vaginalis; details: preliminary experiments
[12] = tested on: T. vaginalis nucleoside transporters; details: ref Harris et al., 1988; cited from earlier work
[13] = molecular target: T. vaginalis nucleoside transporters, Inosine (LA); test: Low affinity [3H]-inosine transport in T. vaginalis trophozoites; assay type: cell-based, Trichomonas vaginalis; details: for Ki: read-out: Ki,app; for Km: read-out: Km,app
TvagENT6 [14] = molecular target: T1, TvagENT6; test: cell-based
[15] = tested on: Nc1ccn([C@@H]2O[C@H](CO)[C@@H](O)[C@H]2O)c(=O)n1; test: cells, lysate or membranes
[16] = read-out: Ki,app, inhibition of […] [3H]-adenosine transport, 30 s, monophasic, average and SEM
[17] = single experiment, Fig. 6E inset
[18] = inhibition of 0.5 µM [3H]-uracil uptake
[19] = inhibition of 0.125 µM [3H]-thymidine uptake, Fig. 3C/D
[20] = inhibition of 1 µM [3H]-inosine uptake, average and SEM
[21] = read-out: Ki,app, low affinity component

## 2’F,2’-deoxyadenosine
T. vaginalis; ref Shokar et al., 2012
  antitrichomonal activity: strong antitrichomonal activity
TvagENT3
  Hill slope: −0.97± 0.15
TvagENT3; read-out: Ki,app
  Ki: 1110 ± 380 nM

## Nc1ncnc2c1ncn2[C@@H]1O[C@H](CO)[C@@H](O)[C@@H]1F [2′-F,2′-deoxyarabinoadenosine]
T. vaginalis; ref Shokar et al., 2012
  antitrichomonal activity: strong antitrichomonal activity

## O=c1[nH]cc(F)c(=O)[nH]1 [5F-uracil]
[1]
  Ki: 265 ± 57 µM

## Nc1ncnc2c1ncn2[C@@H]1O[C@H](CO)[C@@H](O)[C@@H]1O [adenine arabinoside]
T. vaginalis; ref Shokar et al., 2012
  antitrichomonal activity: strong antitrichomonal activity

## Nc1ncnc2nc[nH]c12 [adenine]
[2]; read-out: Ki,app, inhibition of […] [3H]-adenosine transport
  Ki: > 1000 µM
[2]; [16]
  Ki: ~1000 µM
[3]
  EC50: 350 nM
[3]; 50 nM [3H]-adenine
  rate of transport: 0.00073 pmol(10^7 cells)^−1s^−1
[3]; 50 nM [3H]-adenine + 1 mM unlabelled adenine
  rate of transport in the presence of unlabelled permeant: 0.000097 pmol(10^7 cells)^−1s^−1
[3]; 50 nM [3H]-adenine by 1 mM unlabelled adenine
  inhibition of uptake: 86.7%
[3]; 50 nM [3H]-adenine, average
  Vmax: 0.091 ± 0.027 pmol(10^7 cells)^−1s^−1
[3]; 1 µM [3H]-adenine
  rate of transport: 0.0164 pmol(10^7 cells)^−1s^−1 and 0.016 pmol(10^7 cells)^−1s^−1
[3]; 1 µM [3H]-adenine + 1 mM unlabelled adenine
  rate of transport in the presence of unlabelled permeant: 0.00429 pmol(10^7 cells)^−1s^−1
[3]; 1 µM [3H]-adenine by 1 mM unlabelled adenine
  inhibition of uptake: 73.8%
[3]; inhibition of [3H]-adenine uptake, single experiment, Fig. 6E
  EC50: 270 nM
[3]; read-out: EC50, high affinity component, two transporter model, Fig. 6F
  EC50: 230 nM
[3]; read-out: EC50, lower affinity component, two transporter model, Fig. 6F, large degree of uncertainty
  EC50: 17000 nM
[3]; 50 nM [3H]-adenine, high-affinity system, average
  Km: 410 ± 97 nM
[3]; [17]
  Km: 230 nM
  Vmax: 0.155 pmol(10^7 cells)^−1s^−1
[3]; two transporter model, Fig. 6F
  share of flux of high affinity component: 81%
[4]; 125 nM [3H]-thymidine, nucleobase at 1 mM
  inhibition of transport: ≤ 50%
[5]
  inhibition of transport: ≤ 50%
  Ki: > 1000 µM
TvagENT6 [6]; adenine up to 1 mM
  inhibition of transporter: not significantly inhibited

## Nc1ccn([C@@H]2O[C@H](CO)[C@@H](O)[C@H]2O)c(=O)n1 [cytidine]
[7]
  Vmax: 6.7 ± 1.8 pmol(10^7 cells)^−1s^−1
[2]; [16]
  Ki: 17.9 ± 4.4 µM
[8]; average and SEM
  Ki: 18.6 ± 0.9 µM
TvagENT3; 1 mM unlabelled cytidine
  inhibition of cytidine uptake: strongly inhibited
TvagENT3; single experiment, Fig. 10D inset
  Vmax: 0.042 pmol(10^7 cells)^−1s^−1
TvagENT3; single experiment, Fig. 10D-F
  Hill slope: −0.99
[4]; read-out: EC50, higher affinity component, 0.125 µM [3H]-thymidine, 2-transporter plot, Fig. 3D
  EC50: 2.86 µM
[4]; read-out: EC50, lower affinity component, 0.125 µM [3H]-thymidine, 2-transporter plot, Fig. 3D
  EC50: 322 µM
[9]; 0.25 µM [3H]-cytidine by 1 mM unlabelled cytidine
  inhibition of uptake: 97.0%
[9]; 0.25 µM [3H]-cytidine, no inhibitor
  rate of transport: 0.026 ± 0.001 pmol(10^7 cells)^−1s^−1
[9]; Cytidine (HA), average and SEM
  Vmax: 0.83 ± 0.06 pmol(10^7 cells)^−1s^−1
  Km: 7.19 ± 1.77 µM
[9]; Cytidine (HA), average and SEM, listed as Cytidine
  Km: 7.2 ± 1.8 µM
[5]
  EC50: 290 µM
  Ki: 116 ± 5 µM
[10]; read-out: Ki,app, inhibition of 0.5 µM [3H]-uridine transport, 30 s, average and SEM
  Ki: 15.6 ± 2.3 µM

## Nc1cc[nH]c(=O)n1 [cytosine]
[1]; [18]
  Ki: 334 ± 73 µM
[11]; cytosine 0.25 µM over 120 s
  saturable uptake: not significant

## Nc1ncnc2c([C@@H]3O[C@H](CO)[C@@H](O)[C@H]3O)[nH]nc12 [formycin A]
T. vaginalis; ref Munagala and Wang, 2003
  antitrichomonal activity: strong antitrichomonal activity

## Nc1nc2c(ncn2[C@@H]2O[C@H](CO)[C@@H](O)[C@H]2O)c(=O)[nH]1 [guanosine]
[2]; [16]
  Ki: 12.2 ± 2.4 µM
[8]; 1 µM [3H]-guanosine
  rate of transport: 0.22 ± 0.01 pmol(10^7 cells)^−1s^−1
[8]; 1 µM [3H]-guanosine + 0.25 mM unlabelled guanosine
  rate of transport in the presence of unlabelled permeant: 0.0030 ± 0.0004 pmol(10^7 cells)^−1s^−1
[8]; 1 µM [3H]-guanosine by 250 µM guanosine
  reduction of uptake: 98.6%
[8]; Guanosine (HA), average and SEM
  Vmax: 0.91 ± 0.25 pmol(10^7 cells)^−1s^−1
[8]; read-out: Km,app, Guanosine (HA), average and SEM
  Km: 9 ± 0.6 µM
TvagENT3
  Hill slope: −1.33 ± 0.09
  Ki: 2900 ± 140 nM
[12]
  Km: 13.9 µM
[4]; [19]
  EC50: 51.2 µM
[9]; average and SEM
  Ki: 16700 ± 2600 nM
[5]
  inhibition of transport: ≤ 50%
  Ki: > 250 µM
[13]; [20]
  Ki: 7.41 ± 2.92 µM
[13]; inhibition of 1 µM [3H]-inosine uptake, average and SEM, listed as Guanosine
  Ki: 7.4 ± 2.9 µM

## O=c1[nH]cnc2c1ncn2[C@@H]1O[C@H](CO)[C@@H](O)[C@H]1O [inosine]
[1]; uridine, thymidine up to 10 mM, adenosine, inosine up to 1 mM
  inhibition of uracil transport: unable to inhibit
[2]; [21]
  Ki: 347 ± 127 µM
TvagENT3
  Hill slope: −1.08 ± 0.02
TvagENT3; inhibitor at 400 µM
  inhibition of cytidine uptake: completely
TvagENT3; single experiment, Fig. 10D-F
  Hill slope: −1.07
[10]; [21]
  Ki: 231 ± 23 µM
[13]; 1 µM [3H]-inosine
  rate of uptake: 0.0081 ± 0.0002 pmol(10^7 cells)^−1s^−1
[13]; 1 µM [3H]-inosine time course, 1 mM unlabelled nucleoside
  inhibition of uptake: 88%
[13]; 1 µM [3H]-inosine, listed as Inosine
  rate of uptake: 0.0081 pmol(10^7 cells)^−1s^−1
[13]; Inosine (LA), average and SEM
  Vmax: 2.25 ± 0.37 pmol(10^7 cells)^−1s^−1
[13]; inhibition of 1 µM [3H]-inosine uptake, single experiment, Fig. 5B
  EC50: 67.1 µM
[13]; Inosine (LA), 1 µM [3H]-inosine, average and SEM
  Km: 196 ± 18 µM
[13]; single experiment, Fig. 5B inset
  Km: 157 µM
TvagENT6 [14]
  Ki: 40 ± 9.5 µM

## Cc1c[nH]c(=O)[nH]c1=O [thymine]
[1]; [18]
  Ki: 57 ± 8 µM
[11]; thymine 0.5 µM over 120 s
  saturable uptake: not significant

## O=c1ccn([C@@H]2O[C@H](CO)[C@@H](O)[C@H]2O)c(=O)[nH]1 [uridine]
[2]; [16]
  Ki: 3.7 ± 1 µM
[8]; average and SEM
  Ki: 7.8 ± 1.3 µM
TvagENT3
  Ki: 11300 ± 1800 nM
TvagENT3; inhibitor at 400 µM
  inhibition of cytidine uptake: completely
TvagENT3; inhibition of 0.5 µM [3H]-cytidine transport by TvagENT3, average
  Hill slope: −0.98 ± 0.08
TvagENT3; single experiment, Fig. 10D-F
  Hill slope: −0.93
[12]
  Km: 2.5 µM
[4]; [19]
  EC50: 15.3 µM
[9]; average and SEM
  Ki: 1980 ± 500 nM
[9]; average and SEM, listed as Uridine
  Ki: 2000 ± 500 nM
[5]
  EC50: 519 µM
  Ki: 376 ± 63 µM
[10]; 30 s, average and SEM
  Km: 5.49 ± 1.8 µM
[10]; 30 s, average and SEM, listed as Uridine
  Km: 5.5 ± 1.8 µM
TvagENT6 [6]; [3H]-uridine in the presence of 250 µM uracil, average
  Vmax: 0.092 ± 0.021 pmol(10^7 cells)^−1s^−1
[13]; [20]
  Ki: 3.6 ± 1.1 µM

## TvagENT3 (Trichomonas vaginalis G3)
[15]; other: 0.5 µM [3H]-cytidine, TvagENT3 in T. brucei TbAT1-KO, average
  Km: 10.2 ± 2.6 µM
[15]; other: single experiment, Fig. 10D inset
  Km: 10.9 µM
